According to patent US10513522B2, “Azetidinyl phenyl, pyridyl or pyrazinyl carboxamide derivatives as JAK inhibitors” (Incyte Corporation, priority 2011, dated 2019):

Test system: human JAK1 (a.a. 837-1142)
Assay: In vitro JAK kinase assay (HTRF, phosphorylation of biotinylated peptide), JAK1
Assay type: biochemical
Conditions: ratio of IC50 at 1 mM ATP
Experimental: The catalytic activity of JAK1, JAK2 or JAK3 was assayed by measuring the phosphorylation of a biotinylated peptide. The phosphorylated peptide was detected by homogenous time resolved fluorescence (HTRF). […] Reactions were carried out at room temperature for 1 hour and then stopped with 20 μL 45 mM EDTA, 300 nM SA-APC, 6 nM Eu-Py20 in assay buffer (Perkin Elmer, Boston, Mass.). Binding to the Europium labeled antibody took place for 40 minutes and HTRF signal was measured on a Fusion plate reader (Perkin Elmer, Boston, Mass.).

JAK2/JAK1	SMILES
A (A means greater than or equal to 10)	C[C@H](NC(=O)c1ccc(N2CC(CC#N)(n3cc(-c4ncnc5[nH]ccc45)cn3)C2)c(F)c1)C1CC1 [Example 5, 4-{3-(Cyanomethyl)-3-[4-(7H-pyrrolo[2,3-d]pyrimidin-4-yl)-1H-pyrazol-1-yl]azetidin-1-yl}-N-[(1S)-1-cyclopropylethyl]-3-fluorobenzamide]
A (A means greater than or equal to 10)	C[C@@H](NC(=O)c1cc(F)c(N2CC(CC#N)(n3cc(-c4ncnc5[nH]ccc45)cn3)C2)cc1F)C(F)(F)F [Example 29, 4-{3-(Cyanomethyl)-3-[4-(7H-pyrrolo[2,3-d]pyrimidin-4-yl)-1H-pyrazol-1-yl]azetidin-1-yl}-2,5-difluoro-N-[(1R)-2,2,2-trifluoro-1-methylethyl]benzamide]
A (A means greater than or equal to 10)	CC(C)NC(=O)c1cc(F)c(N2CC(CC#N)(n3cc(-c4ncnc5[nH]ccc45)cn3)C2)cc1F [Example 6, 4-{3-(Cyanomethyl)-3-[4-(7H-pyrrolo[2,3-d]pyrimidin-4-yl)-1H-pyrazol-1-yl]azetidin-1-yl}-2,5-difluoro-N-isopropylbenzamide]
A (A means greater than or equal to 10)	CN(C(=O)c1ccc(N2CC(CC#N)(n3cc(-c4ncnc5[nH]ccc45)cn3)C2)c(F)c1)C1CC1 [Example 7, 4-{3-(Cyanomethyl)-3-[4-(7H-pyrrolo[2,3-d]pyrimidin-4-yl)-1H-pyrazol-1-yl]azetidin-1-yl}-N-cyclopropyl-3-fluoro-N-methylbenzamide]
A (A means greater than or equal to 10)	C[C@H](NC(=O)c1cc(F)c(N2CC(CC#N)(n3cc(-c4ncnc5[nH]ccc45)cn3)C2)cc1F)C(F)(F)F [Example 28, 4-{3-(Cyanomethyl)-3-[4-(7H-pyrrolo[2,3-d]pyrimidin-4-yl)-1H-pyrazol-1-yl]azetidin-1-yl}-2,5-difluoro-N-[(1S)-2,2,2-trifluoro-1-methylethyl]benzamide]
A (A means greater than or equal to 10)	C[C@@H](NC(=O)c1ccc(N2CC(CC#N)(n3cc(-c4ncnc5[nH]ccc45)cn3)C2)c(F)c1)C1CC1 [Example 4, 4-{3-(Cyanomethyl)-3-[4-(7H-pyrrolo[2,3-d]pyrimidin-4-yl)-1H-pyrazol-1-yl]azetidin-1-yl}-N-[(1R)-1-cyclopropylethyl]-3-fluorobenzamide]
A (A means greater than or equal to 10)	CCNC(=O)c1ccc(N2CC(CC#N)(n3cc(-c4ncnc5[nH]ccc45)cn3)C2)cn1 [Example 24, 5-{3-(Cyanomethyl)-3-[4-(7H-pyrrolo[2,3-d]pyrimidin-4-yl)-1H-pyrazol-1-yl]azetidin-1-yl}-N-ethylpyridine-2-carboxamide]
A (A means greater than or equal to 10)	N#CCC1(n2cc(-c3ncnc4[nH]ccc34)cn2)CN(c2cc(F)c(C(=O)NCC(F)F)cc2F)C1 [Example 37, 4-{3-(Cyanomethyl)-3-[4-(7H-pyrrolo[2,3-d]pyrimidin-4-yl)-1H-pyrazol-1-yl]azetidin-1-yl}-N-(2,2-difluoroethyl)-2,5-difluorobenzamide]
A (A means greater than or equal to 10)	N#CCC1(n2cc(-c3ncnc4[nH]ccc34)cn2)CN(c2ccc(C(=O)NC3CC(F)(F)C3)nc2)C1 [Example 12, 5-{3-(Cyanomethyl)-3-[4-(7H-pyrrolo[2,3-d]pyrimidin-4-yl)-1H-pyrazol-1-yl]azetidin-1-yl}-N-(3,3-difluorocyclobutyl)pyridine-2-carboxamide]
A (A means greater than or equal to 10)	CC(C)NC(=O)c1ccc(N2CC(CC#N)(n3cc(-c4ncnc5[nH]ccc45)cn3)C2)cc1 [Example 13, 4-{3-(Cyanomethyl)-3-[4-(7H-pyrrolo[2,3-d]pyrimidin-4-yl)-1H-pyrazol-1-yl]azetidin-1-yl}-N-isopropylbenzamide]

SMILES	JAK2/JAK1
CC(C)NC(=O)c1ccc(N2CC(CC#N)(n3cc(-c4ccnc5[nH]ccc45)cn3)C2)cc1 [Example 1, 4-{3-(Cyanomethyl)-3-[4-(1H-pyrrolo[2,3-b]pyridin-4-yl)-1H-pyrazol-1-yl]azetidin-1-yl}-N-isopropylbenzamide]	A (A means greater than or equal to 10)
